# Results taken from the NIST ThermoML archive (doi:10.1016/j.fluid.2012.11.039).
# Numbers after ± are expanded uncertainties.
# Assays:
# [1] = Liquid, Vibrating tube method
# [2] = xn = mol fraction of the nth substance listed; details: Liquid, Vibrating tube method
compound,measurement,setting,value
CCCCCCCCCC [decane],mass density,"[1]; 373.2 K, 100 kPa",667.1 ± 0.3 kg/m3
same,mass density,"[1]; 373.2 K, 1000 kPa",668.4 ± 0.4 kg/m3
same,mass density,"[1]; 373.2 K, 2000 kPa",669.6 ± 0.4 kg/m3
same,mass density,"[1]; 373.2 K, 3000 kPa",670.9 ± 0.4 kg/m3
same,mass density,"[1]; 373.2 K, 4000 kPa",672.1 ± 0.4 kg/m3
same,mass density,"[1]; 373.2 K, 5000 kPa",673.4 ± 0.4 kg/m3
same,mass density,"[1]; 373.2 K, 6000 kPa",674.5 ± 0.4 kg/m3
same,mass density,"[1]; 373.2 K, 7000 kPa",675.7 ± 0.4 kg/m3
same,mass density,"[1]; 373.2 K, 8000 kPa",676.9 ± 0.4 kg/m3
same,mass density,"[1]; 373.2 K, 9000 kPa",678.1 ± 0.4 kg/m3
same,mass density,"[1]; 373.2 K, 10000 kPa",679.2 ± 0.4 kg/m3
CCCCCCCCCC [decane] + CCCCCCCCCCCCCCCCCC,mass density,"[2]; 373.2 K, 100 kPa, x2 = 0",667.1 ± 0.3 kg/m3
same,mass density,"[2]; 373.2 K, 1000 kPa, x2 = 0",668.4 ± 0.4 kg/m3
same,mass density,"[2]; 373.2 K, 2000 kPa, x2 = 0",669.6 ± 0.4 kg/m3
same,mass density,"[2]; 373.2 K, 3000 kPa, x2 = 0",670.9 ± 0.4 kg/m3
same,mass density,"[2]; 373.2 K, 4000 kPa, x2 = 0",672.1 ± 0.4 kg/m3
same,mass density,"[2]; 373.2 K, 5000 kPa, x2 = 0",673.4 ± 0.4 kg/m3
same,mass density,"[2]; 373.2 K, 6000 kPa, x2 = 0",674.5 ± 0.4 kg/m3
same,mass density,"[2]; 373.2 K, 7000 kPa, x2 = 0",675.7 ± 0.4 kg/m3
same,mass density,"[2]; 373.2 K, 8000 kPa, x2 = 0",676.9 ± 0.4 kg/m3
same,mass density,"[2]; 373.2 K, 9000 kPa, x2 = 0",678.1 ± 0.4 kg/m3
same,mass density,"[2]; 373.2 K, 10000 kPa, x2 = 0",679.2 ± 0.4 kg/m3
CCCCCCCCCCCCCCCCCC [octadecane],mass density,"[1]; 372.9 K, 1010 kPa",728.2 ± 0.4 kg/m3
same,mass density,"[1]; 372.9 K, 2010 kPa",729.2 ± 0.4 kg/m3
same,mass density,"[1]; 372.9 K, 3020 kPa",730.2 ± 0.4 kg/m3
same,mass density,"[1]; 372.9 K, 4000 kPa",731.1 ± 0.4 kg/m3
same,mass density,"[1]; 372.9 K, 5000 kPa",732 ± 0.4 kg/m3
same,mass density,"[1]; 372.9 K, 6020 kPa",732.9 ± 0.4 kg/m3
same,mass density,"[1]; 372.9 K, 7010 kPa",733.8 ± 0.4 kg/m3
same,mass density,"[1]; 372.9 K, 8000 kPa",734.7 ± 0.4 kg/m3
same,mass density,"[1]; 372.9 K, 8990 kPa",735.6 ± 0.4 kg/m3
same,mass density,"[1]; 372.9 K, 9980 kPa",736.4 ± 0.4 kg/m3
CCCCCCCCCCCCCCCCCC [octadecane] + CCCCCCCCCC,mass density,"[2]; 372.7 K, 100 kPa, x1 = 0.25",689.9 ± 0.3 kg/m3
same,mass density,"[2]; 372.7 K, 1010 kPa, x1 = 0.25",691 ± 0.4 kg/m3
same,mass density,"[2]; 372.7 K, 2010 kPa, x1 = 0.25",692.2 ± 0.4 kg/m3
same,mass density,"[2]; 372.7 K, 3020 kPa, x1 = 0.25",693.3 ± 0.4 kg/m3
same,mass density,"[2]; 372.7 K, 4010 kPa, x1 = 0.25",694.4 ± 0.4 kg/m3
same,mass density,"[2]; 372.7 K, 5010 kPa, x1 = 0.25",695.5 ± 0.4 kg/m3
same,mass density,"[2]; 372.7 K, 6010 kPa, x1 = 0.25",696.6 ± 0.4 kg/m3
same,mass density,"[2]; 372.7 K, 7010 kPa, x1 = 0.25",697.7 ± 0.4 kg/m3
same,mass density,"[2]; 372.7 K, 8010 kPa, x1 = 0.25",698.7 ± 0.4 kg/m3
same,mass density,"[2]; 372.7 K, 9020 kPa, x1 = 0.25",699.8 ± 0.4 kg/m3
same,mass density,"[2]; 372.7 K, 10010 kPa, x1 = 0.25",700.8 ± 0.4 kg/m3
same,mass density,"[2]; 372.8 K, 100 kPa, x1 = 0.5",705.7 ± 0.4 kg/m3
same,mass density,"[2]; 372.8 K, 100 kPa, x1 = 0.75",717.8 ± 0.4 kg/m3
same,mass density,"[2]; 372.8 K, 1020 kPa, x1 = 0.5",706.8 ± 0.4 kg/m3
same,mass density,"[2]; 372.8 K, 1050 kPa, x1 = 0.75",718.9 ± 0.4 kg/m3
same,mass density,"[2]; 372.8 K, 2020 kPa, x1 = 0.5",707.8 ± 0.4 kg/m3
same,mass density,"[2]; 372.8 K, 2020 kPa, x1 = 0.75",719.9 ± 0.4 kg/m3
same,mass density,"[2]; 372.8 K, 2940 kPa, x1 = 0.5",708.7 ± 0.4 kg/m3
same,mass density,"[2]; 372.8 K, 3000 kPa, x1 = 0.75",720.8 ± 0.4 kg/m3
same,mass density,"[2]; 372.8 K, 4000 kPa, x1 = 0.75",721.8 ± 0.4 kg/m3
same,mass density,"[2]; 372.8 K, 4010 kPa, x1 = 0.5",709.9 ± 0.4 kg/m3
same,mass density,"[2]; 372.8 K, 5010 kPa, x1 = 0.5",710.9 ± 0.4 kg/m3
same,mass density,"[2]; 372.8 K, 5010 kPa, x1 = 0.75",722.8 ± 0.4 kg/m3
same,mass density,"[2]; 372.8 K, 6000 kPa, x1 = 0.5",711.9 ± 0.4 kg/m3
same,mass density,"[2]; 372.8 K, 6000 kPa, x1 = 0.75",723.7 ± 0.4 kg/m3
same,mass density,"[2]; 372.8 K, 7000 kPa, x1 = 0.5",712.9 ± 0.4 kg/m3
same,mass density,"[2]; 372.8 K, 7010 kPa, x1 = 0.75",724.6 ± 0.4 kg/m3
same,mass density,"[2]; 372.8 K, 8000 kPa, x1 = 0.5",713.9 ± 0.4 kg/m3
same,mass density,"[2]; 372.8 K, 8000 kPa, x1 = 0.75",725.5 ± 0.4 kg/m3
same,mass density,"[2]; 372.8 K, 8990 kPa, x1 = 0.75",726.4 ± 0.4 kg/m3
same,mass density,"[2]; 372.8 K, 9010 kPa, x1 = 0.5",714.8 ± 0.4 kg/m3
same,mass density,"[2]; 372.8 K, 10010 kPa, x1 = 0.5",715.8 ± 0.4 kg/m3
same,mass density,"[2]; 372.8 K, 10010 kPa, x1 = 0.75",727.4 ± 0.4 kg/m3
same,mass density,"[2]; 372.9 K, 1010 kPa, x1 = 1",728.2 ± 0.4 kg/m3
same,mass density,"[2]; 372.9 K, 2010 kPa, x1 = 1",729.2 ± 0.4 kg/m3
same,mass density,"[2]; 372.9 K, 3020 kPa, x1 = 1",730.2 ± 0.4 kg/m3
same,mass density,"[2]; 372.9 K, 4000 kPa, x1 = 1",731.1 ± 0.4 kg/m3
same,mass density,"[2]; 372.9 K, 5000 kPa, x1 = 1",732 ± 0.4 kg/m3
same,mass density,"[2]; 372.9 K, 6020 kPa, x1 = 1",732.9 ± 0.4 kg/m3
same,mass density,"[2]; 372.9 K, 7010 kPa, x1 = 1",733.8 ± 0.4 kg/m3
same,mass density,"[2]; 372.9 K, 8000 kPa, x1 = 1",734.7 ± 0.4 kg/m3
same,mass density,"[2]; 372.9 K, 8990 kPa, x1 = 1",735.6 ± 0.4 kg/m3
same,mass density,"[2]; 372.9 K, 9980 kPa, x1 = 1",736.4 ± 0.4 kg/m3
